According to PubChem BioAssay (NCI):
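All cell lines were grown in 96-well plates and treated with compound for 48 hours. GI50 marks 50% less growth. TGI marks complete inhibition of growth.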

Assays:
Experiment in all cases: NCI tumour cell line growth inhibition, 48 h
SNB-75 CNS = system: SNB-75 CNS
BT-549 breast = system: BT-549 breast
MDA-MB-231 breast = system: MDA-MB-231 breast
SK-OV-3 ovarian = system: SK-OV-3 ovarian
K-562 leukemia = system: K-562 leukemia
IGROV1 ovarian = system: IGROV1 ovarian
OVCAR-4 ovarian = system: OVCAR-4 ovarian
UO-31 renal = system: UO-31 renal
NCI/ADR-RES ovarian = system: NCI/ADR-RES ovarian
HL-60(TB) leukemia = system: HL-60(TB) leukemia
SK-MEL-2 melanoma = system: SK-MEL-2 melanoma
NCI-H226 lung = system: NCI-H226 lung
NCI-H460 lung = system: NCI-H460 lung
HT29 colon = system: HT29 colon
SF-539 CNS = system: SF-539 CNS
A498 renal = system: A498 renal
DU-145 prostate = system: DU-145 prostate
OVCAR-3 ovarian = system: OVCAR-3 ovarian
COLO 205 colon = system: COLO 205 colon
MDA-MB-435 = system: MDA-MB-435
HCC-2998 colon = system: HCC-2998 colon
OVCAR-5 ovarian = system: OVCAR-5 ovarian
SK-MEL-28 melanoma = system: SK-MEL-28 melanoma
786-0 renal = system: 786-0 renal
NCI-H23 lung = system: NCI-H23 lung
OVCAR-8 ovarian = system: OVCAR-8 ovarian
A549 NSCLC = system: A549 NSCLC
SF-268 CNS = system: SF-268 CNS
SNB-19 CNS = system: SNB-19 CNS
SW-620 colon = system: SW-620 colon
RPMI-8226 leukemia = system: RPMI-8226 leukemia
M14 melanoma = system: M14 melanoma
SF-295 CNS = system: SF-295 CNS
SK-MEL-5 melanoma = system: SK-MEL-5 melanoma
UACC-62 melanoma = system: UACC-62 melanoma
HOP-62 NSCLC = system: HOP-62 NSCLC
UACC-257 melanoma = system: UACC-257 melanoma
HCT-15 colon = system: HCT-15 colon
KM12 colon = system: KM12 colon
SR leukemia = system: SR leukemia
MCF7 breast = system: MCF7 breast
T-47D breast = system: T-47D breast
EKVX NSCLC = system: EKVX NSCLC
HCT-116 colon = system: HCT-116 colon
LOX IMVI melanoma = system: LOX IMVI melanoma
U251 CNS = system: U251 CNS
RXF 393 renal = system: RXF 393 renal
MOLT-4 leukemia = system: MOLT-4 leukemia
MALME-3M melanoma = system: MALME-3M melanoma
TK-10 renal = system: TK-10 renal
PC-3 prostate = system: PC-3 prostate
ACHN renal = system: ACHN renal
CAKI-1 renal = system: CAKI-1 renal
CCRF-CEM leukemia = system: CCRF-CEM leukemia
HS 578T breast = system: HS 578T breast
SN12C renal = system: SN12C renal
HOP-92 NSCLC = system: HOP-92 NSCLC

COc1ccccc1Cn1c2c(c3c(C(=O)NCCN(C)C)c(O)ccc31)C(=O)c1ccccc1C2=O
TGI (SNB-75 CNS): 2.96 µM
TGI (BT-549 breast): 64.7 µM
TGI (MDA-MB-231 breast): 3.72 µM
TGI (SK-OV-3 ovarian): 43.4 µM
TGI (K-562 leukemia): 4 µM
TGI (IGROV1 ovarian): 3.23 µM
TGI (OVCAR-4 ovarian): 3.04 µM
TGI (UO-31 renal): 3.33 µM
TGI (NCI/ADR-RES ovarian): 4.93 µM
TGI (HL-60(TB) leukemia): 2.78 µM
TGI (SK-MEL-2 melanoma): 3.46 µM
TGI (NCI-H226 lung): 51.5 µM
TGI (NCI-H460 lung): 4.23 µM
TGI (HT29 colon): 3.47 µM
TGI (SF-539 CNS): 3.09 µM
TGI (A498 renal): 41.2 µM
TGI (DU-145 prostate): 3.31 µM
TGI (OVCAR-3 ovarian): 3.36 µM
TGI (COLO 205 colon): 3.19 µM
TGI (MDA-MB-435): 3.24 µM
TGI (HCC-2998 colon): 3.02 µM
TGI (OVCAR-5 ovarian): 3.62 µM
TGI (SK-MEL-28 melanoma): 3.15 µM

CC(C)(C)NC1C2CCC(C)(C1O)C2(C)C (stereo not drawn)
TGI (SNB-75 CNS): 26.2 µM
TGI (786-0 renal): > 100 µM
TGI (NCI-H23 lung): > 100 µM
TGI (BT-549 breast): > 100 µM
TGI (MDA-MB-231 breast): > 100 µM
TGI (OVCAR-8 ovarian): > 100 µM
TGI (A549 NSCLC): > 100 µM
TGI (SF-268 CNS): > 100 µM
TGI (SK-OV-3 ovarian): > 100 µM
TGI (SNB-19 CNS): > 100 µM
TGI (K-562 leukemia): > 100 µM
TGI (IGROV1 ovarian): > 100 µM
TGI (OVCAR-4 ovarian): > 100 µM
TGI (SW-620 colon): > 100 µM
TGI (RPMI-8226 leukemia): > 100 µM
TGI (M14 melanoma): > 100 µM
TGI (SF-295 CNS): > 100 µM
TGI (SK-MEL-5 melanoma): > 100 µM
TGI (UACC-62 melanoma): 12.5 µM
TGI (UO-31 renal): > 100 µM
TGI (NCI/ADR-RES ovarian): > 100 µM
TGI (HOP-62 NSCLC): > 100 µM
TGI (UACC-257 melanoma): > 100 µM
TGI (HCT-15 colon): > 100 µM
TGI (KM12 colon): > 100 µM
TGI (SK-MEL-2 melanoma): > 100 µM
TGI (SR leukemia): > 100 µM
TGI (NCI-H460 lung): > 100 µM
TGI (MCF7 breast): 14.7 µM
TGI (HT29 colon): > 100 µM
TGI (T-47D breast): > 100 µM
TGI (EKVX NSCLC): > 100 µM
TGI (HCT-116 colon): > 100 µM
TGI (SF-539 CNS): > 100 µM
TGI (A498 renal): 5.19 µM
TGI (LOX IMVI melanoma): > 100 µM
TGI (DU-145 prostate): > 100 µM
TGI (OVCAR-3 ovarian): > 100 µM
TGI (COLO 205 colon): > 100 µM
TGI (MDA-MB-435): > 100 µM
TGI (U251 CNS): > 100 µM
TGI (HCC-2998 colon): > 100 µM
TGI (RXF 393 renal): > 100 µM
TGI (MOLT-4 leukemia): > 100 µM
TGI (OVCAR-5 ovarian): > 100 µM
TGI (MALME-3M melanoma): > 100 µM
TGI (TK-10 renal): > 100 µM
TGI (SK-MEL-28 melanoma): > 100 µM
TGI (PC-3 prostate): > 100 µM
TGI (ACHN renal): 21.6 µM
TGI (CAKI-1 renal): > 100 µM

CC1=C(C)C(=O)OC([C@](C)(O)[C@]2(O)CC[C@@]3(O)[C@@H]4C[C@H]5O[C@]56CC=CC(=O)[C@]6(C)[C@H]4CC[C@]23COC(=O)c2ccc(C)o2)C1 (stereo partly drawn)
TGI (MDA-MB-231 breast): > 24.4 µM
TGI (A549 NSCLC): > 32.4 µM
TGI (SNB-19 CNS): > 24.7 µM
TGI (K-562 leukemia): > 43.5 µM
TGI (OVCAR-4 ovarian): > 34.1 µM
TGI (RPMI-8226 leukemia): > 33.2 µM
TGI (SF-295 CNS): > 32.6 µM
TGI (NCI/ADR-RES ovarian): > 79.7 µM
TGI (HOP-62 NSCLC): > 21 µM
TGI (CCRF-CEM leukemia): > 35.4 µM
TGI (UACC-257 melanoma): > 20.9 µM
TGI (NCI-H226 lung): > 33 µM
TGI (SR leukemia): > 100 µM
GI50 (MCF7 breast): > 100 µM
TGI (MCF7 breast): > 100 µM
TGI (MOLT-4 leukemia): > 22.4 µM
TGI (MALME-3M melanoma): > 31.8 µM
TGI (HS 578T breast): > 51.6 µM

CCNCCNC(=O)c1ccc(Br)cc1
TGI (SNB-75 CNS): > 100 µM
TGI (786-0 renal): > 100 µM
TGI (NCI-H23 lung): > 100 µM
TGI (BT-549 breast): > 100 µM
TGI (OVCAR-8 ovarian): > 100 µM
TGI (A549 NSCLC): > 100 µM
TGI (SN12C renal): > 100 µM
TGI (SF-268 CNS): > 100 µM
TGI (SK-OV-3 ovarian): > 100 µM
TGI (SNB-19 CNS): > 100 µM
TGI (K-562 leukemia): > 100 µM
TGI (HOP-92 NSCLC): > 100 µM
TGI (IGROV1 ovarian): > 100 µM
TGI (OVCAR-4 ovarian): > 100 µM
TGI (SW-620 colon): > 100 µM
TGI (RPMI-8226 leukemia): > 100 µM
TGI (M14 melanoma): > 100 µM
TGI (SK-MEL-5 melanoma): > 100 µM
TGI (UACC-62 melanoma): > 100 µM
TGI (UO-31 renal): > 100 µM
TGI (NCI/ADR-RES ovarian): > 100 µM
TGI (CCRF-CEM leukemia): > 100 µM
TGI (HCT-15 colon): > 100 µM
TGI (KM12 colon): > 100 µM
TGI (HL-60(TB) leukemia): > 100 µM
TGI (NCI-H226 lung): > 100 µM
TGI (SR leukemia): > 100 µM
TGI (NCI-H460 lung): > 100 µM
TGI (MCF7 breast): > 100 µM
TGI (HT29 colon): > 100 µM
TGI (EKVX NSCLC): > 100 µM
TGI (SF-539 CNS): > 100 µM
TGI (A498 renal): > 100 µM
TGI (LOX IMVI melanoma): > 100 µM
TGI (OVCAR-3 ovarian): > 100 µM
TGI (U251 CNS): > 100 µM
TGI (HCC-2998 colon): > 100 µM
TGI (RXF 393 renal): > 100 µM
TGI (MOLT-4 leukemia): > 100 µM
TGI (OVCAR-5 ovarian): > 100 µM
TGI (TK-10 renal): > 100 µM
TGI (SK-MEL-28 melanoma): > 100 µM
TGI (HS 578T breast): > 100 µM
TGI (PC-3 prostate): > 100 µM
TGI (ACHN renal): > 100 µM
TGI (CAKI-1 renal): > 100 µM
